Test results: US12357699B2, “B-cell immunotherapy in cancer treatment” (AKAMARA THERAPEUTICS, INC., priority 2018, dated 2025)

Assays:
LLC cells = test: Combination of PD1 immune checkpoint inhibitor and IO-125 in immunocompetent murine NSCLC tumor model (LLC cells s.c. in C57/BL6 mice); type: in vivo; conditions: syngeneic lung cancer (LLC) bearing animals, two cycles
Method: The combination of a PD1 immune checkpoint inhibitor and IO-125 was evaluated in an immunocompetent murine NSCLS tumor model. The murine NSCLC tumor model was generated by subcutaneously implanting LLC cells in C57/BL6 mice. Treatment with saline (control), IO-125, immune check point inhibitor (anti-PD1 antibody, Biolegend) or combinatorial therapy (IO-125 and anti-PD1 antibody) was initiated when average tumor volume in the animals reached 100 mm^3, through i.v. administration of compounds. A schematic representation of the treatment regimen is depicted in FIG. 1A.
(§1) In contrast, 45% of the animals underwent complete tumor regression when the two drugs were combined. These observations illustrate that combinations of IO-125 with immune checkpoint inhibitor(s) augment tumor regression as compared to monotherapies.

IGKC [1] = test: Immune biomarker expression (molecular immunophenotyping, immunohistochemistry of FFPE sections) in LLC tumors; type: in vivo, C57/BL6 mice
Source text: as §1
Subsequently, tumors were harvested and a portion fixed in formalin.

4T1 cells [2] = test: Murine triple negative breast cancer (TNBC) tumor model (4T1 s.c. in Balb/c mice); type: in vivo; conditions: 4T1 tumor-bearing Balb/c mice, 20 mgPt/kg, two cycles
Source text: (§2) The efficacy of IO-125 was examined in the murine triple negative breast cancer (TNBC) tumor model (4T1). 4T1 cells were subcutaneously implanted in Balb/c mice to generate tumors and treated with IO-125 or saline (control), when tumors reached an average volume of 100 mm^3. The dose administered for IO-125 was 20 mgPt/kg, with a regimen of b5d. Following one cycle of treatment, tumors were harvested and a portion of the tumor from control and IO-125 treated group was used for total RNA isolation and subsequent evaluation of immune activating and immune suppressive genes (Denkert et al., Clin Oncol. 2015; 33(9):983-91) by semi-quantitative PCR. IO-125 treatment was continued for an additional cycle, with recording of tumor volume and examination of tumors for regression.

IGKC [3] = test: Semi-quantitative PCR of immune activating and suppressive genes in 4T1 tumors; type: in vivo, Balb/c mice; conditions: 4T1 tumors harvested after one cycle, 20 mgPt/kg
Source text: as §2

4T1 cells [4] = test: Tumor rechallenge (immune memory study), re-implantation of 4T1 cells; type: in vivo, Balb/c mice
Method: 4T1 cells were subcutaneously implanted in Balb/c mice to generate tumors. When tumors reached an average volume of 100 mm^3, they were treated with IO-125 (Group 1). Two groups of Balb/c mice (non-tumor bearing) were either treated with IO-125 or saline (designated Group 2 and 3 respectively; FIG. 3A). Immune memory cells are poised to rapidly expand and induce effector functions upon recurrence, while existing in a functionally quiescent state. To verify this hypothesis, we examined immune memory in IO-125 treated tumors.

[5] = tested on: B cell differentiation and TLR activation markers; test: Relative mRNA expression in naive splenic B cells cultured with conditioned media (TCM) from treated 4T1 cells; type: cell-based, mice; conditions: splenic B cells 48 hours in TCM from 4T1 cells treated 6 hours plus 42 hours
Method: 4T1 cells were seeded in cell culture dishes in IMDM media containing 10% FBS. The cells were treated with blank supramolecule (Vehicle) and IO-125 when they reached 60% confluence. Following a transient treatment of 6 hours, the media was removed and supplemented with fresh culture media and cells were incubated for additional 42 hours. Following treatment, the conditioned media from 4T1 cells (TCM) was collected for each treatment and filtered through 0.2 micron PES filters to obtain TCM free of cell debris. The harvested TCMs were used immediately for conditioning of B cells, isolated from naïve mice splenocytes using the EasySep Stem Cell B cell isolation kit as per manufacturers protocol. The B cells were incubated with conditioned media and harvested after 48 hours of incubation. RNA was isolated from the B cells and used for relative mRNA expression level evaluation of genes involved in B cell differentiation and TLR activation.

4T1 cells [6] = test: 4T1 tumor growth in B cell-deficient mice (Jh−/−); type: in vivo; conditions: 4T1 tumors
Method: (§3) 4T1 cells were subcutaneously implanted in the mice strains mentioned and when tumors reached an average volume of 100 mm^3, they were divided into two groups. One group was kept as control and the other treated with IO-125 and tumor volume in all the animals were recorded.

4T1 cells [7] = test: 4T1 tumor growth in mice lacking functional B cells and T cells (SCID); type: in vivo; conditions: 4T1 tumors
Method: as §3

[8] = tested on: genes involved in B cell differentiation and TLR activation; test: Relative mRNA expression in splenic B cells isolated from treated mice; type: in vivo, Balb/c mice; conditions: tumor bearing treated mice (Group 1)
Method: Splenic B cells were isolated from Group 1 and Group 2 mice, described in Example 3. Spleen was harvested from mice (n=3) and minced into small pieces in RPMI-1640 basal media. The pieces were placed on top of a 40 mesh membrane and crushed with the back of a syringe and the single cell suspension was collected onto a 50 mL tube. The single cell suspension was washed twice with PBS to remove debris by centrifuging at 2000 rpm. Splenocytes were counted using haemocytometer and 100 million splenocytes were resuspended in 1 mL of Isolation buffer (2% FBS, […] in DPBS) and transferred to a 5 ml Polystyrene tube. The B cells were isolated from splenocytes using the EasySep Stem Cell B cell isolation kit as per manufacturers protocol. One part of the isolated B cells was used for RNA isolation, followed by relative mRNA expression levels of genes involved in B cell differentiation and TLR activation were evaluated; while the second part was used for immunodetection of specific proteins, following the manufacturer's protocol.

Structure (SMILES): CC(C)CCCC(C)C1CCC2C3CC=C4CC(OCCN(CC(=O)[O-])CC(=O)[O][Pt+]5[NH]C6CCCCC6[NH]5)CCC4(C)C3CCC12C (stereo not drawn) [IO-125]
- tumor growth curves (FIG. 2C) (LLC cells): significant tumor growth inhibition but no regression
- IGKC levels (FIG. 2D) (IGKC [1]; LLC tumors of treated animals, relative expression of immune biomarkers): increase in IGKC levels
- immunodetection of B220 and IGKC in tumor sections (FIG. 2E) (IGKC [1]; treated versus control tumors): significantly increased expression of IGKC
- tumor growth curve (FIG. 2A) (4T1 cells [2]): complete regression of tumors
- IGKC mRNA levels in tumors (FIG. 2B) (IGKC [3]): significant increase in IGKC mRNA levels
- tumor growth after re-implantation of cancer cells, Group 1 (4T1 cells [4]; animals that had previously undergone tumor regression with treatment): no tumor growth was observed
- tumor growth after implantation of 4T1 cells, Group 2 (4T1 cells [4]; non-tumor bearing Balb/c mice pre-treated, compared with saline treated mice (Group 3)): led to the growth of tumors
- B cell differentiation markers and TLR activation markers, relative mRNA (FIG. 4B) [5]: substantially increased
- tumor ablation in Jh−/− mice (FIG. 4C) (4T1 cells [6]): Tumor ablation did not occur
- tumor ablation in SCID mice (FIG. 4D) (4T1 cells [7]): Tumor ablation did not occur
- expression of TLRs and CD80 in splenic B cells [8]: elevated expression of TLRs and CD80
- IGKC mRNA levels in splenic B cells (FIG. 5B) ([8]; normalized to Group 2): significant increase in IGKC mRNA levels
